The source of these data is patent US9250232B2, “Fluorescent probe” (THE UNIVERSITY OF TOKYO, priority 2012, dated 2016).

The nature of data set [1]: Optical characteristics (absorption and fluorescence maxima, quantum yield) in 0.1 M phosphate buffer with 1% DMSO. In kind it is physicochemical. The note with it: for λmax,fl (nm) / Φfl (fluorescence quantum yield): 0.1 M phosphate buffer (pH 9); for Φfl (fluorescence quantum yield): standard 2-Me TM (0.42); for λmax,abs (nm) pH 9: pH 9, 0.1 M phosphate buffer.
Method: (§1) The measurement was performed in a 0.1 M phosphate buffer (pH 9) containing 1% dimethyl sulfoxide (DMSO). pKa was obtained from the absorbance meaured in a phosphate buffer (pH 9) by single-phase or two-phase curve fitting.
A short description of data set [2]: pKa from absorbance in phosphate buffer by single-phase or two-phase curve fitting. The note with it: single value given.
Method: as §1
For data set [3] the following is noted: 2-Me TokyoMagenta in 0.1 M phosphate buffer (pH 9); compound of WO2012/099218; cited from earlier work.
For a further data set, the system named is HEK293 cells. Description: Imaging of β-galactosidase in live HEK293 cells (lacZ+ / lacZ−), intracellular uptake. Type of data set: cell-based. The note with it: 10 μM, 37° C., 30 minutes, DMEM with 0.1% DMSO, confocal microscope. As for the experimental part: For the HEK293 cells in which the lacZ gene encoding β-galactosidase was stably expressed (lacZ+), and the HEK293 cells into which the lacZ gene was not introduced (lacZ−) as a control, β-galactosidase in the cells was measured by using diCl-2-COOH TM-monoβGal or diCl-2-COOH TM-diβGal. The HEK293 cells (lacZ−) were incubated at 37° C. for 30 minutes in the Dulbecco's Modified Eagle's medium (DMEM) containing 0.1% DMSO together with 10 μM diCl-2-COOH TM-monoβGal or diCl-2-COOH TM-diβGal. […] The results are shown in FIG. 19 (diCl-2-COOH TM-monoβGal) and FIG. 20 (diCl-2COOHTM-diβGal).

Data set [4] in a line: Estimate of open-ring ratio by comparison with the absorption spectrum of TM-βGal. In kind it is physicochemical. The note with it: pH of physiological conditions; 10 μM in 0.1 M sodium phosphate buffer, 1.0% DMSO; versus TM-βGal. How it is done: In order to estimate the open-ring ratio of diCl-2-COOH TM-monoβGal, comparison with the absorption spectrum of TM-βGal was performed. […] The measurement was performed by using 10 μM diCl-2-COOH TM-monoβGal in a 0.1 M sodium phosphate buffer of various pH values containing 1.0% DMSO. The excitation wavelength was 450 nm for TMβGal (compound described in International Patent Publication WO2012/099218), or 460 nm for diCl-2-COOH TM-monoβGal.

Data set [5] in a line: Optical characteristics of diCl-2-COOH TM-monoβGal in 0.1 M phosphate buffer. In kind it is physicochemical. As for the experimental part: The quantum yield was calculated by using the quantum yield (0.85) of fluorescein in 0.1M aqueous sodium hydroxide as the standard.

By pKa is commonly meant the negative logarithm of the acid dissociation constant. Higher therefore signals a group that holds its proton tightly.

Method for physchem: as §1

Regarding `C[Si]1(C)C2=C(Cl)C(=O)C=CC2=C(c2ccccc2C(=O)O)c2ccc(O)c(Cl)c21` [2-COOH DCTM, 4′,5′-Dichloro-2-COOH TokyoMagenta], in data set [1], the “λmax,fl (nm)” value came out at 607 nm, the “Φfl (fluorescence quantum yield)” value is given as 0.48 and the “λmax,abs (nm) pH 9” value turned out to be 591 nm.

For `C[Si]1(C)C2=CC(=O)C=CC2=C(c2ccccc2C(=O)O)c2ccc(O)cc21` [2-COOH TM], in data set [1], the “λmax,fl (nm)” value was determined as 598 nm, the “Φfl (fluorescence quantum yield)” value is 0.38 and the “λmax,abs (nm) pH 9” value came out at 582 nm. Also, the pKa in “physchem” (pKa (first of two printed values)) was 8.3. The molecule further displayed a pKa in the data set “physchem” (pKa (second of two printed values)) of 7.6.

As for `Cc1ccccc1C1=C2C=CC(=O)C=C2[Si](C)(C)c2cc(O)ccc21` [2-Me TM, 2-Me TokyoMagenta], in data set [1], the “λmax,fl (nm)” value is recorded as 598 nm and the “λmax,abs (nm) pH 9” value amounted to 582 nm. Moreover, in data set [1] (pH 3, 0.1 M phosphate buffer), the “λmax,abs (nm) pH 3” value amounted to 472 nm. For the same molecule, in data set [2], the pKa is reported as 6.8. In data set [3], the “Φfl (quantum yield used as the standard)” value is 0.42.

On to `C[Si]1(C)C2=C(Cl)C(=O)C=CC2=C(c2ccccc2C(=O)O)c2ccc(O[C@@H]3O[C@H](CO)[C@H](O)[C@H](O)[C@H]3O)c(Cl)c21` [diCl-2-COOH TM-monoβGal, 4′,5′-Dichloro-2-COOH TokyoMagenta mono-β-D-galactopyranoside], for which, in the data set with HEK293 cells, the “Intracellular uptaking amount compared with diCl-2-COOH TM-diβGal” value was “larger”. Besides, the “Part having the ring-closed structure, which does not show absorption” value in data set [4] is recorded as “more than 95%”. In data set [5], the “Absorption λmax [nm]” value was found to be 460 nm and the “Fluorescence λmax [nm]” value was 555 nm. Besides, the “Extinction Coefficient ε [M^−1cm^−1]” value in data set [5] (pH 7.4) is 1,200 (pH 7.4) M^−1cm^−1. The “Quantum yield Φfl” value in data set [5] (pH 7.4, standard fluorescein (0.85)) is 0.09 (pH 7.4).
